Assay results taken from patent US8674059B2, “Colon cancer related gene TOM34” (Oncotherapy Science, Inc., priority 2005, dated 2014).
Where no end group is shown, it is not given here.

How the values were obtained:
Assay type in all cases: cell-based, human
SNU-C2A = experiment: 51Cr-release cytotoxicity of CTL clones against SNU-C2A cells (TOM34 positive, HLA-A24 negative); settings: expresses TOM34 but not HLA-A24
Description: (§1) Target cells were labeled with 100 μCi of Na2^51CrO4 (Perkin Elmer Life Sciences) for 1 hr at 37° C. in a CO2 incubator. Peptide-loaded target cells were prepared by incubating the cells with 20 μg/ml of the peptide for 16 hrs at 37° C. before labeling. Labeled target cells were rinsed and mixed with effector cells in a final volume of 0.2 ml in round-bottom microtiter plates. The plates were centrifuged (4 minutes at 800×g) to increase cell-to-cell contact and placed in a CO2 incubator at 37° C. After 4 hrs of incubation, 0.1 ml of the supernatant was collected from each well and the radioactivity was determined with a gamma counter. In case of evaluating cytotoxicity for target cells that endogenously express TOM34, the cytolytic activity was tested in the presence of 30-fold excess of unlabeled K562 cells to eliminate any non-specific lysis due to NK-like effectors. […]
(§2) The percentage of specific cytotoxicity was determined by calculating the percentage of specific ^51Cr-release by the following formula: {(cpm of the test sample release−cpm of the spontaneous release)/(cpm of the maximum release−cpm of the spontaneous release)}×100. Spontaneous release was determined by incubating the target cells alone, in the absence of effector cells, and the maximum release was obtained by incubating the targets with 1N HCl. […]

TISI cells (HLA-A24/24) = experiment: In vitro CTL induction and 51Cr-release cytotoxicity assay against peptide-loaded TISI cells
Source text: Monocyte-derived dendritic cells (DCs) were used as antigen-presenting cells (APCs) to induce CTLs against peptides presented on HLA. DCs were generated in vitro as described elsewhere (Nukaya I, et al., Int J Cancer. 1999; 80(1):92-7; Tsai V, et al., J Immunol. 1997; 158(4):1796-802). Briefly, peripheral blood mononuclear cells (PBMCs) were isolated from normal volunteers ((HLA-A24) by Ficoll-Paque (Pharmacia) solution and separated by adherence to a plastic tissue culture flask (Becton Dickinson) so as to enrich them for the monocyte fraction. The monocyte-enriched population was cultured in the presence of 1,000 U/ml of GM-CSF (provided by Kirin Brewery Company) and 1,000 U/ml of IL-4 (Genzyme) in AIM-V (Invitrogen) containing 2% heat-inactivated autologous serum (AS). After 7 days in the culture, the cytokine-generated DCs were loaded with 20 μg/ml of HLA-A24-binding peptides in the presence of 3 μg/ml of β2-microglobulin for 4 hrs at 20° C. in AIM-V. These peptide-loaded DCs were then irradiated (5,500 rad) and mixed at a 1:20 ratio with autologous CD8+ T cells, obtained by positive selection with Dynabeads M-450 CD8 (Dynal) and Detachabead (Dynal). This mixture was subdivided and aliquots were incubated in 48-well plates (Corning); each well contained 1.5×10^4 peptide-loaded DCs and 3×10^5 CD8+ T cells in 0.5 ml of AIM-V/2% AS containing 10 ng/ml of IL-7 (Genzyme). Three days later, these cultures were supplemented with IL-2 (CHIRON) to a final concentration of 20 IU/ml. On day 7 and 14, the T cells were further restimulated with the autologous peptide-loaded DCs. The DCs were prepared each time by the same way as described above. Cytotoxicity was tested against peptide-loaded TISI cells after the 3rd round of peptide stimulation on day 21. […]
Target cells were labeled with 100 μCi of Na2^51CrO4 (Perkin Elmer Life Sciences) for 1 hr at 37° C. in a CO2 incubator. […] After 4 hrs of incubation, 0.1 ml of the supernatant was collected from each well and the radioactivity was determined with a gamma counter. […]

HT29 = experiment: 51Cr-release cytotoxicity of CTL clones against HT29 cells endogenously expressing TOM34; settings: HT29, expresses TOM34 and HLA-A24
Description: as §1, §2

HT29 cells = experiment: Cold target inhibition assay; settings: E/T ratio 20; TISI with or without loaded peptide
Description: FIG. 9 depict HLA specificity of the CTL clones raised by TOM34-299. The CTL clone raised by TOM34-299 specifically recognizes TOM34 in the HLA-A24 restricted manner. • The cold target inhibition assay was performed as described in “Materials and Methods”. HT29 cells labeled by Na2^51CrO4 were prepared as hot target, while TISI cells with or without loaded TOM34-299 peptide were used without ^51Cr labeling as cold targets. E/T ratio was fixed at 20.
as §1

DLD-1 = experiment: 51Cr-release cytotoxicity of CTL clones against DLD-1 cells endogenously expressing TOM34; settings: DLD-1, expresses TOM34 and HLA-A24
Description: as §1, §2

KLRQEVKQNL [KLRQEVKQNL]
cytotoxic activity of two CTL clones (SNU-C2A): neither of the two CTL clones showed any relevant cytotoxic activity | cytotoxic activity of CTL lines against the peptide-loaded target (TISI cells (HLA-A24/24); CTL lines stimulated by the peptide, TISI loaded with peptide): potent cytotoxic activity | cytotoxic activity of CTL lines against targets not loaded with the peptide (TISI cells (HLA-A24/24); TISI without loaded peptide): without showing any significant cytotoxic activity | E/T ratio at which antigen-specific cytotoxicity of CTL lines is detectable (TISI cells (HLA-A24/24); as low as): 1.2 | cytotoxic activity of two CTL clones (HT29): potent cytotoxic activity | cytotoxic activity of CTL clone against HT29 in presence of cold target TISI cells (HT29 cells): inhibited by the addition of TISI cells only when loaded with the peptide | cytotoxic activity of two CTL clones (DLD-1): potent cytotoxic activity
